Experimental data reported in patent publication US7507749B2, “Antitumor agents” (priority 2001, dated 2009).
Read-outs that look alike come from different tables or passages of the source.

Tests used:
[1] = test system: mammary adenocarcinoma-16/C; test: Test F: R-enantiomers of 22b and 22c against early staged mammary adenocarcinoma-16/C; type: in vivo, C3H female mice
Procedure: C3H female mice were obtained from N.C.I. (D.O.B. was […]; D.O.A. was Jan. 27, 2001). The mice weighed an average of 19.2 gm. Mice were implanted SC with mammary adenocarcinoma-16/C passage-170, a fast growing, highly invasive, highly metastatic tumor (D.O.T. was Mar. 8, 2001; Td was 1.2 days).
The R-enantiomers of both Compound 22c and Compound 22b were each suspended in 3% ethanol, 1% POE-80, 0.5% sodium bicarbonate (by volume) to effect solution, P.B.S. was then added and the pH adjusted to 7 with HCl. Adriamycin (ADRIA; lot number 20338c) was suspended in dH2O to effect solution and the pH was adjusted to 6.0. Mice were administered 0.2 ml per IV injection.

[2] = test system: pancreatic ductal adenocarcinoma-03; type: in vivo
Procedure: BDF1 female mice were obtained from N.C.I., CRL-Ral (D.O.B. was Feb. 26, 2001; D.O.A. was Mar. 10, 2001). The mice weighed an average of 22.5 gm. Mice were implanted SC with pancreatic ductal adenocarcinoma-03 passage 143. (D.O.T. was May 29, 2001; Td was 2.3 days).
The R-enantiomer of compound 22c was suspended in 3% ethanol, 1% POE-80, 0.25% sodium bicarbonate (by volume) to effect solution. dH2O was then added, and the pH adjusted to 7 with HCl. […] The R-enantiomer of compound 22b was suspended in 3% ethanol, 1% POE-80, 0.5% sodium-bicarbonate (by volume) to effect solution. Then, dH2O was added, and the pH adjusted to 7.5 with HCl. […] Adriamycin (source ADRIA; lot 2033BC) was suspended in dH2O to effect solution, and the pH was 6.0.
Treatment began six days following implant, at which time the tumors were palpable size (126 mg median). The duration of treatment was prolonged (18 days) in order to obtain a clear separation in efficacy between the compounds.

[3] = Cage 5, IV 50 mg/kg/inj qd 1-5, total 250 mg/kg
[4] = Cage 5, IV 50 mg/kg/inj qd 1-5, total 250 mg/kg, listed as R-enantiomer of compound 22b
[5] = Cage 6, IV 50 mg/kg/inj days 1,3,5,7, total 200 mg/kg
[6] = Cage 7, IV 30 mg/kg/inj days 1,3,5,7, total 120 mg/kg
[7] = Cg 2, IV 80 mg/kg/inj days 6,9,12,15,18,21,24, total 560 mg/kg
[8] = Cg 3, IV 50 mg/kg/inj days 6,9,12,15,18,21,24, total 350 mg/kg
[9] = Cg 4, IV 31 mg/kg/inj days 6,9,12,15,18,21,24, total 217 mg/kg
[10] = Cg 5, total 592.8 mg/kg, text: SC 31.2 mg/kg/inj qd 6-24 (table prints days 6,9..24 IV)
[11] = Cg 12 in table (Cage 6 in text), total 370.5 mg/kg, text: SC 19.5 mg/kg/inj qd 6-24 (table prints IV)

SMILES: C[C@@H](Oc1ccc(Oc2ccc3ccc(Cl)cc3n2)cc1)C(=O)O [Compound R-22b, (R) 2-[4-(7-chloroquinolin-2-yloxy)phenoxy]propanoic acid]
- % T/C mass [1, 3]: 0%
- Activity Rating [1, 3]: +++ (2.0-2.8)
- Drug Deaths [1, 3]: 0/5
- Growth Delay [1, 3]: 7.0 days
- Log Kill [1, 3]: 2.1
- Median Tumor Mass on Day 10 (Range) [1, 3]: 0 mg
- Median time for tumors to 1000 mg (range) [1, 3]: 16.5 (13.5-18) days
- Tumor Free day-155 [1, 3]: 0/5
- % T/C mass [1, 4]: 0%
- Drug Deaths [1, 4]: no deaths
- % T/C mass [1, 5]: 5%
- Activity Rating [1, 5]: ++ (1.3-1.9)
- Drug Deaths [1, 5]: 0/5
- Growth Delay [1, 5]: 5.8 days
- Log Kill [1, 5]: 1.7
- Median Tumor Mass on Day 10 (Range) [1, 5]: 75 mg
- Median time for tumors to 1000 mg (range) [1, 5]: 15.3 (14-17) days
- Tumor Free day-155 [1, 5]: 0/5
- % T/C mass ([1]; Cage 6, IV 50 mg/kg/inj days 1,3,5,7, total 200 mg/kg, listed as R-enantiomer of compound 22b): 5%
- % T/C mass [1, 6]: 32%
- Activity Rating [1, 6]: + (0.7-1.2)
- Drug Deaths [1, 6]: 0/5
- Growth Delay [1, 6]: 2.5 days
- Log Kill [1, 6]: 0.8
- Median Tumor Mass on Day 10 (Range) [1, 6]: 486 mg
- Median time for tumors to 1000 mg (range) [1, 6]: 12 (11.5-14) days
- Tumor Free day-155 [1, 6]: 0/5
- % T/C mass ([1]; Cage 7, IV 30 mg/kg/inj days 1,3,5,7, total 120 mg/kg, listed as R-enantiomer of compound 22b): 32%
- Neuromuscular toxicity ([1]; mouse, in vivo, iv): completely devoid of neuromuscular toxicity
- Behavior post injection ([2]; Cage 2, IV 80 mg/kg/inj, lasted only a few minutes): agitated post IV injection
- Neuromuscular toxicity ([2]; Cage 2, IV 80 mg/kg/inj, total 560 mg/kg): no neuromuscular toxicity
- Behavior post injection ([2]; Cage 5, SC 31.2 mg/kg/inj qd 6-24): not agitated post SC injection
- Behavior post injection ([2]; Cage 6 in text, SC 19.5 mg/kg/inj qd 6-24): not agitated post SC injection
- % Body Wt change between day 6 and day 24 [2, 7]: +3.7%
- % T/C mass [2, 7]: 14.1%
- Activity Rating [2, 7]: +++ (2.0-2.8)
- CR's [2, 7]: 0/7
- Drug Deaths [2, 7]: 0/7
- Growth Delay [2, 7]: 17.5 days
- Log Kill [2, 7]: 2.3
- Median Tumor Mass on Day 24 (Range) [2, 7]: 320 mg
- Median time for tumors to 1,000 mg (range) [2, 7]: 34 days
- PR's [2, 7]: 2/7
- Tumor Free day-157 [2, 7]: 0/7
- % Body Wt change between day 6 and day 24 [2, 8]: +8.8%
- % T/C mass [2, 8]: 29.1%
- Activity Rating [2, 8]: ++ (1.3-1.9)
- CR's [2, 8]: 1/6
- Drug Deaths [2, 8]: 0/6
- Growth Delay [2, 8]: 11.5 days
- Log Kill [2, 8]: 1.5
- Median Tumor Mass on Day 24 (Range) [2, 8]: 658 mg
- Median time for tumors to 1,000 mg (range) [2, 8]: 28 days
- PR's [2, 8]: 1/6
- Tumor Free day-157 [2, 8]: 0/6
- % Body Wt change between day 6 and day 24 [2, 9]: +10.4%
- % T/C mass [2, 9]: 76.2%
- Activity Rating [2, 9]: − (<0.7)
- CR's [2, 9]: 0/6
- Drug Deaths [2, 9]: 0/6
- Growth Delay [2, 9]: 3.5 days
- Log Kill [2, 9]: 0.5
- Median Tumor Mass on Day 24 (Range) [2, 9]: 1722 mg
- Median time for tumors to 1,000 mg (range) [2, 9]: 20 days
- PR's [2, 9]: 0/6
- Tumor Free day-157 [2, 9]: 0/6
- % Body Wt change between day 6 and day 24 [2, 10]: +3.5%
- % T/C mass [2, 10]: 48.9%
- Activity Rating [2, 10]: + (0.7-1.2)
- CR's [2, 10]: 1/5
- Drug Deaths [2, 10]: 0/5
- Growth Delay [2, 10]: 6.5 days
- Log Kill [2, 10]: 0.9
- Median Tumor Mass on Day 24 (Range) [2, 10]: 1105 mg
- Median time for tumors to 1,000 mg (range) [2, 10]: 23 days
- PR's [2, 10]: 1/5
- Tumor Free day-157 [2, 10]: 1/5
- % Body Wt change between day 6 and day 24 [2, 11]: +10.3%
- % T/C mass [2, 11]: 82.7%
- Activity Rating [2, 11]: − (<0.7)
- CR's [2, 11]: 0/5
- Drug Deaths [2, 11]: 0/5
- Growth Delay [2, 11]: 3.0 days
- Log Kill [2, 11]: 0.4
- Median Tumor Mass on Day 24 (Range) [2, 11]: 1868 mg
- Median time for tumors to 1,000 mg (range) [2, 11]: 19.5 days
- PR's [2, 11]: 0/5
- Tumor Free day-157 [2, 11]: 0/5
